Laboratory results reported in patent US10836708B2, “Process for the synthesis of (s) 3-amino-4-(difluoromethylenyl)cyclopent-1-ene-1-carboxylic acid” (NORTHWESTERN UNIVERSITY, priority 2018, dated 2020).

Legend:
[1] = with prolonged use; cited from earlier work
[2] = system: γ-aminobutyric acid aminotransferase (GABA-AT); details: statement in the background section; cited from earlier work
[3] = system: multiple GABA receptors; details: cited from earlier work
[4] = system: release of dopamine in the corpus striatum; details: rats; after exposure to cocaine or nicotine; compared with previous inhibitors of GABA-AT; cited from earlier work
[5] = molecular target: hERG potassium ion channel (Homo sapiens, UniProt Q12809); details: cited from earlier work
[6] = system: aspartate aminotransferase; details: off-target aminotransferase enzyme; cited from earlier work
[7] = system: various microsomal cytochrome P450 enzymes; details: cited from earlier work
[8] = system: alanine aminotransferase; details: off-target aminotransferase enzyme; cited from earlier work

Chain of hERG potassium ion channel (Q12809 whole entry): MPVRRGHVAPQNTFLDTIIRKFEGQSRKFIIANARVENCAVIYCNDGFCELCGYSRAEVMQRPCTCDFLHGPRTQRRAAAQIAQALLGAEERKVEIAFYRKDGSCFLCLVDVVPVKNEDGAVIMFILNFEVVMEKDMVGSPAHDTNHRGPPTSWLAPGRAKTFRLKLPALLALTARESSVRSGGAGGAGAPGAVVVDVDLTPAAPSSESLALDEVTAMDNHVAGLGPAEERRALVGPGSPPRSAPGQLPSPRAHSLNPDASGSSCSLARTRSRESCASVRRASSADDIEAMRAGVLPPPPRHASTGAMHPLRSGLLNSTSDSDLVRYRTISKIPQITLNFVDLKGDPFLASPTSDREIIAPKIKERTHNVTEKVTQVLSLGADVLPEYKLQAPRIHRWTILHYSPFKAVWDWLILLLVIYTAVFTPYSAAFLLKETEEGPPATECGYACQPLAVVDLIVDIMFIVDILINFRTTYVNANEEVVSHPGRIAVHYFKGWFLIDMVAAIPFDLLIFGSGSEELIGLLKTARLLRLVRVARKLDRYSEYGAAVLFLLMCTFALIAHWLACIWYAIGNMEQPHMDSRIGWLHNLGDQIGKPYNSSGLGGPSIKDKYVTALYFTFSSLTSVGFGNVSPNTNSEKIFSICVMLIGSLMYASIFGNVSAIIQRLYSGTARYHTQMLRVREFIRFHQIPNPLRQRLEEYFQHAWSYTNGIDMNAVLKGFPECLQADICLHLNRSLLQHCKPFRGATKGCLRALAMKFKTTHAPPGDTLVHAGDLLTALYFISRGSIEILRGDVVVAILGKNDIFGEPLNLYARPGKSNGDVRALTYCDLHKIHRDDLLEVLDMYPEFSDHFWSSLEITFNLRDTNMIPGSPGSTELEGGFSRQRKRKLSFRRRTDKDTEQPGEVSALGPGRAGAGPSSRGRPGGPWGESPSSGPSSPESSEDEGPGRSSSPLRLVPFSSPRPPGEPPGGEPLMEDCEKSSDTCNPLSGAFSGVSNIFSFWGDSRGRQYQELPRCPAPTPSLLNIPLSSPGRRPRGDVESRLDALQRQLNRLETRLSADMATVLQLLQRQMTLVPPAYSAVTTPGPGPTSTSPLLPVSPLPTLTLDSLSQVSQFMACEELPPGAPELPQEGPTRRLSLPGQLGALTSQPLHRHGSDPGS

SMILES: C=CC(N)CCC(=O)O (stereo not shown) [Vigabatrin, 4-Aminohex-5-enoic acid]
- retinal damage, share of patients [1]: 25-40 % of patients
- inhibitor of GABA-AT [2]: inhibitor
- inhibition of multiple GABA receptors [3]: inhibits

SMILES: N[C@H]1C=C(C(=O)O)CC1=C(F)F [(S)-3-amino-4-(difluoromethylenyl)cyclopent-1-ene-1-carboxylic acid]
- suppressing the release of dopamine in the corpus striatum [4]: superior
- inhibition of the hERG potassium ion channel [5]: does not inhibit
- inhibitor of GABA-AT [2]: inhibitor
- inhibition of aspartate aminotransferase [6]: does not inhibit
- inhibition of various microsomal cytochrome P450 enzymes [7]: does not inhibit
- inhibition of alanine aminotransferase [8]: does not inhibit

SMILES: O=C1N[C@@H]2C(=C(F)F)C[C@H]1[C@H]2Br
- melting point: 139 to 141 °C
